The target in one assay is T1, Adenosine receptor A3 (Homo sapiens, UniProt P0DMS8).
T1 sequence (P0DMS8 whole entry): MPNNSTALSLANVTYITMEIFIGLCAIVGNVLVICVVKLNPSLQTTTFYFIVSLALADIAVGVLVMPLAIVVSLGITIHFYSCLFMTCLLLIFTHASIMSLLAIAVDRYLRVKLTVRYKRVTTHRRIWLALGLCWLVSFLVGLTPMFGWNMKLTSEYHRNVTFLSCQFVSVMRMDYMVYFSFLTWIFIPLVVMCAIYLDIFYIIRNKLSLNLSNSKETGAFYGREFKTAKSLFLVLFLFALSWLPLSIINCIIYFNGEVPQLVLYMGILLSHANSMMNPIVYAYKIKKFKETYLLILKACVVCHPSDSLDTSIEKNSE

For assay [1], the target named is Neuronal acetylcholine receptor subunit alpha-4 (Homo sapiens, UniProt P43681).
Assay [2] has as its target Growth hormone secretagogue receptor type 1 (Homo sapiens, UniProt Q92847).
For assay [3], the target named is T2, Prostaglandin G/H synthase 1 (Rattus norvegicus, UniProt Q63921).
T2 sequence (Q63921 whole entry): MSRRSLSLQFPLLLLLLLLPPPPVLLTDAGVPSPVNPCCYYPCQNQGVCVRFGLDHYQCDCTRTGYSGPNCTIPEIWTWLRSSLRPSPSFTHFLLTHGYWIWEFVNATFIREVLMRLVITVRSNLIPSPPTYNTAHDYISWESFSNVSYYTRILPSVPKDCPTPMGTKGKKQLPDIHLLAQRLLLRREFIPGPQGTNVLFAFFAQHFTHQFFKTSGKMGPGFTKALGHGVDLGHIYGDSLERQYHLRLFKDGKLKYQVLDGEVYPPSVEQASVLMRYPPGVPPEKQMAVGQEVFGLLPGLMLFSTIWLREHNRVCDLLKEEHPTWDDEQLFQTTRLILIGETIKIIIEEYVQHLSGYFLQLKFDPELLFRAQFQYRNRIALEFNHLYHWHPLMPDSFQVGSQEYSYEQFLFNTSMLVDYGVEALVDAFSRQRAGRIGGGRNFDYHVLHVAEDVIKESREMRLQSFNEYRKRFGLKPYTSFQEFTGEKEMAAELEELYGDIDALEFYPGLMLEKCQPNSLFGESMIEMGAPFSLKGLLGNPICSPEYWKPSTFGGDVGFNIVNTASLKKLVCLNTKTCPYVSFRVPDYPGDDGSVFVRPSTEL
Type of assay: functional.

For assay [4], the target named is T3, Equilibrative nucleoside transporter 1 (Homo sapiens, UniProt Q99808).
T3 sequence (Q99808 whole entry): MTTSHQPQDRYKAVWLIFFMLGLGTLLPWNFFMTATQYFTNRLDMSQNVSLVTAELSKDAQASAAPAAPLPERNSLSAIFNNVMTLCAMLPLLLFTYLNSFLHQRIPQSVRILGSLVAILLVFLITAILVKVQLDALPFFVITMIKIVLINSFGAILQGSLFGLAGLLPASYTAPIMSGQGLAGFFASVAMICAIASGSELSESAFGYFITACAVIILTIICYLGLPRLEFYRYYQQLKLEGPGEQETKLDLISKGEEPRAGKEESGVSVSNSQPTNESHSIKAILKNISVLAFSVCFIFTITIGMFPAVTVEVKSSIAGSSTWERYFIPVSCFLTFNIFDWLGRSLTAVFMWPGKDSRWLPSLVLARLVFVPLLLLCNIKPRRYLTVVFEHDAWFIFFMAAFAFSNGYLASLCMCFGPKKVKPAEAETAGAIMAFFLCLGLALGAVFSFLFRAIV

Assay [5] concerns the target T4, Amine oxidase [flavin-containing] A (Homo sapiens, UniProt P21397).
T4 sequence (P21397 whole entry): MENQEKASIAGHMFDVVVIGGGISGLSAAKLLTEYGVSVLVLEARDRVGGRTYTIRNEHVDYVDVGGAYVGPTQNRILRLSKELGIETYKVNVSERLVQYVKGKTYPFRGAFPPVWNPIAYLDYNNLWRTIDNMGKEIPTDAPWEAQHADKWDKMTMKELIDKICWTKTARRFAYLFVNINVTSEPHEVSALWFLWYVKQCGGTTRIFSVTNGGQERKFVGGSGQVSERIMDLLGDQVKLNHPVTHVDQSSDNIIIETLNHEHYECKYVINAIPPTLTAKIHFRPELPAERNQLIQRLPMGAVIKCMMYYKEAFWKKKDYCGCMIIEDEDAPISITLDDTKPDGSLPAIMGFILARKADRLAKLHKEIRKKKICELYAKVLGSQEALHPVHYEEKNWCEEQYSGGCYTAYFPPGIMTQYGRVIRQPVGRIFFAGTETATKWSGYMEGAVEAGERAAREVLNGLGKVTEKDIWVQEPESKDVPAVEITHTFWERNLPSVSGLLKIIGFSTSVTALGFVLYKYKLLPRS
In kind it is functional.

In assay [6] the target is 3',5'-cyclic-AMP phosphodiesterase 4D (Homo sapiens, UniProt Q08499). Type of assay: functional.
Assay [7] concerns the target T5, Neuropeptide Y receptor type 1 (Homo sapiens, UniProt P25929).
T5 sequence (P25929 whole entry): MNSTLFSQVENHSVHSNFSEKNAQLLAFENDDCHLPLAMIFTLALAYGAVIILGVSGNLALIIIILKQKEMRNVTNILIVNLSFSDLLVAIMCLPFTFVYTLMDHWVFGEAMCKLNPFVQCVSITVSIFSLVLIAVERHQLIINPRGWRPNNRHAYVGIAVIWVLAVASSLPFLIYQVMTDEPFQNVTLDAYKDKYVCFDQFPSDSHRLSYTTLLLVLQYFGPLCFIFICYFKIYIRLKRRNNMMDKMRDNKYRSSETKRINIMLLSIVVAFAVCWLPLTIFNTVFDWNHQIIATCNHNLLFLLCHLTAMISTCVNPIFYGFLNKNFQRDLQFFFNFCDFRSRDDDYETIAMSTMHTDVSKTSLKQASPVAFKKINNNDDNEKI
The following applies: read-out: AC50.

Where only a bound is given, the exact number is not on record here.
Note: assay procedure not described here.

Sequence of 3',5'-cyclic-AMP phosphodiesterase 4D (Q08499 whole entry): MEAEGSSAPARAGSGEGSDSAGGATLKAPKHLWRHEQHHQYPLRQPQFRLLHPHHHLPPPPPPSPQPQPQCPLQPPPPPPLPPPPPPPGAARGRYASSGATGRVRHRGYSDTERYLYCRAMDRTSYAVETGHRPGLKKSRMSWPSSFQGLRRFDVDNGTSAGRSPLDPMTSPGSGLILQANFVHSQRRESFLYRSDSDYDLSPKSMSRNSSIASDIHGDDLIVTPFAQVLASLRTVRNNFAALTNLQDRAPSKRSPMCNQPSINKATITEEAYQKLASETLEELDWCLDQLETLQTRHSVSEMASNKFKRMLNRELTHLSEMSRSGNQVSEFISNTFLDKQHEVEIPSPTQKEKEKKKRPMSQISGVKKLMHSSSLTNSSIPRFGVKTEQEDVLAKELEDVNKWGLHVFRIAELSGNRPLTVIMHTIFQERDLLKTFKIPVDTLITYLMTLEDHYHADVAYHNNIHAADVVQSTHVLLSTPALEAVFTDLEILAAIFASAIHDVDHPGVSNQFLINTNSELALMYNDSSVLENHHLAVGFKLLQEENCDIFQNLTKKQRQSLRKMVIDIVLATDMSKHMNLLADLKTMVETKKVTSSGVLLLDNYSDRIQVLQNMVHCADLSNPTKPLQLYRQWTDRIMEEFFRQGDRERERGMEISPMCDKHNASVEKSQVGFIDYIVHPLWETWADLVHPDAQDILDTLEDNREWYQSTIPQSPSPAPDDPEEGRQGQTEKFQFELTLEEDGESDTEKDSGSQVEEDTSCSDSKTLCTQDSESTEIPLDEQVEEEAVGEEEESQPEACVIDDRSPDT
Sequence of Neuronal acetylcholine receptor subunit alpha-4 (P43681 whole entry): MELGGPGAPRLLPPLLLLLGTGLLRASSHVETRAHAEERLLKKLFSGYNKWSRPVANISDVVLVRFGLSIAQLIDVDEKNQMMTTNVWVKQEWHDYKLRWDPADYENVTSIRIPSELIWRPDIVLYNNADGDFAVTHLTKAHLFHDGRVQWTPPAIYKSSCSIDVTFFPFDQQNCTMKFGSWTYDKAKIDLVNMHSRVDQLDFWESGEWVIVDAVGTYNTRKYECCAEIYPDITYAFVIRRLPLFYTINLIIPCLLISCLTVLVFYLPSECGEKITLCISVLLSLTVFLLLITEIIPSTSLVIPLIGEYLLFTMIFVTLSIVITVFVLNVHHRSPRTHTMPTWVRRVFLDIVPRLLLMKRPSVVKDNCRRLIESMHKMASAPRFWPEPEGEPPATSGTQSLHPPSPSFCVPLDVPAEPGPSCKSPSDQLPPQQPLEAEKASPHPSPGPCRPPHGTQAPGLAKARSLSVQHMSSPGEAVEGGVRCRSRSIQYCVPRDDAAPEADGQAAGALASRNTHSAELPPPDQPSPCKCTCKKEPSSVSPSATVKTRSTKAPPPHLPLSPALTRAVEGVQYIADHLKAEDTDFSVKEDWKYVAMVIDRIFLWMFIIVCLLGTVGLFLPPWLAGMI
Sequence of Growth hormone secretagogue receptor type 1 (Q92847 whole entry): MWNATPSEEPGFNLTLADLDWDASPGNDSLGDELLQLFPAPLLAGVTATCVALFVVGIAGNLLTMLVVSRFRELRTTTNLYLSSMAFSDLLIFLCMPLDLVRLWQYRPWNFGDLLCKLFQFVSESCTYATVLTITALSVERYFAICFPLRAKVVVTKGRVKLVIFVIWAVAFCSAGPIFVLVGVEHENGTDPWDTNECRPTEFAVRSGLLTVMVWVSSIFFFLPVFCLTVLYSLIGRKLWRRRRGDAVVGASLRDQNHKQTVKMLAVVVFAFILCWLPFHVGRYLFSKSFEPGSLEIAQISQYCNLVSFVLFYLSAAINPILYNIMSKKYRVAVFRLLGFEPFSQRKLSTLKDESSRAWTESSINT

What is called AC50 is the concentration giving half of the maximal activity seen. As to `CC(C(=O)O)c1ccc(CC2CCCC2=O)cc1` (centres undefined) [LOXOPROFEN], the AC50 (on Adenosine receptor A3; in assay [1]; in assay [2]; in assay [3]; in assay [4]; in assay [5]) was greater than 30 µM each time. Also, the AC50 in assay [6] and in assay [7] was greater than 30 µM throughout.

For `CCC1(c2ccccc2)CCC(=O)NC1=O` (centres undefined) [GLUTETHIMIDE], the AC50 (at Adenosine receptor A3; in assay [1]; in assay [2]; in assay [3]; in assay [4]; in assay [5]) was greater than 10 µM in each case. The figures for the AC50 in assay [6] and in assay [7] were greater than 30 µM and greater than 10 µM, respectively.

For `CCOC(=O)c1cncn1[C@H](C)c1ccccc1` [ETOMIDATE], the AC50 (on Adenosine receptor A3; in assay [1]; in assay [2]; in assay [3]; in assay [4]; in assay [5]) was greater than 10 µM throughout. Also, the AC50 in assay [6] was greater than 30 µM; in assay [7] it was greater than 10 µM.

Source of the values: ChEMBL document CHEMBL5291721, “A preclinical secondary pharmacology resource illuminates target-adverse drug reaction associations of marketed drugs” (Nat Commun, 2023).
